Assay results: ChEMBL document CHEMBL1150515, “Synthesis and structure-activity relationships of novel THF 1-methylcarbapenems II” (1997)

Experiments:
[1] = system: Acinetobacter calcoaceticus; experiment: Antimicrobial activity against Acinetobacter calcoaceticus (GC 756); assay type: functional
[2] = Antimicrobial activity against Citrobacter freundii (GC 2211); assay type: functional
[3] = biological target: T1, Dipeptidase 1 (Sus scrofa) (UniProt P22412); experiment: Relative hydrolysis to that of imipenem was determined by hog renal dehydropeptidase
T1 sequence (whole entry): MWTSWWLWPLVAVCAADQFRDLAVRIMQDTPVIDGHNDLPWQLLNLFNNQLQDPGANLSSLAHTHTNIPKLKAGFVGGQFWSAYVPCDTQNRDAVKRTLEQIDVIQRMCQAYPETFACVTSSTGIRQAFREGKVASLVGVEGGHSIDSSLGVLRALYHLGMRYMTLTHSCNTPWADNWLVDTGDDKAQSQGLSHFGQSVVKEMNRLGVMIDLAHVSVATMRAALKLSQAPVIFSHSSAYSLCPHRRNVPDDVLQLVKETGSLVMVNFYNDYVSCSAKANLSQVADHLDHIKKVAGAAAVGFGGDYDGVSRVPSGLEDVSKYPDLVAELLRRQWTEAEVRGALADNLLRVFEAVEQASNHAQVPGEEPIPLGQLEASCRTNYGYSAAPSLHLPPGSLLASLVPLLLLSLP

Enterococcus faecium = experiment: The compound was evaluated for the antimicrobial activity against Enterococcus faecium (GC 1182); assay type: functional
Staphylococcus aureus [4] = experiment: The compound was evaluated for the antimicrobial activity against methicillin - resistant Staphylococcus aureus (GC 2220); assay type: functional
[5] = Antimicrobial activity against Enterobacter cloacae (GC 2209); assay type: functional
Escherichia coli [6] = experiment: Antimicrobial activity against Escherichia coli (ATCC 25922); assay type: functional
Escherichia coli [7] = experiment: Antimicrobial activity against Escherichia coli (GC 1792); assay type: functional
Escherichia coli [8] = experiment: Antimicrobial activity against Escherichia coli (GC 2205); assay type: functional
[9] = Antimicrobial activity against Morganella morganii (GC 2213); assay type: functional
Pseudomonas aeruginosa [10] = experiment: Antimicrobial activity against Pseudomonas aeruginosa (ATCC 27853); assay type: functional
Pseudomonas aeruginosa [11] = experiment: Antimicrobial activity against Pseudomonas aeruginosa (GC 1544 OprD); assay type: functional
Enterococcus faecalis = experiment: The compound was evaluated for the antimicrobial activity against Enterococcus faecalis (GC 842); assay type: functional
Staphylococcus aureus [12] = experiment: Antimicrobial activity against Staphylococcus aureus (ATCC 29213); assay type: functional
[13] = Antimicrobial activity against Xanthomonas maltophilia (GC 562); assay type: functional; details: Stenotrophomonas maltophilia

## CCN1CCN(C(=O)NC[C@H]2OCC[C@H]2SC2=C(C(=O)[O-])N3C(=O)[C@H]([C@@H](C)O)[C@H]3[C@H]2C)C(=O)C1=O.[Na+]
[1]
  MIC: 2 µg/mL
[2]
  MIC: 0.12 µg/mL
[3]
  Relative hydrolysis: 9
Enterococcus faecium
  MIC: > 128 µg/mL
Staphylococcus aureus [4]
  MIC: 8 µg/mL
[5]
  MIC: ≤ 0.06 µg/mL
Escherichia coli [6]
  MIC: ≤ 0.06 µg/mL
Escherichia coli [7]
  MIC: ≤ 0.06 µg/mL
Escherichia coli [8]
  MIC: ≤ 0.06 µg/mL
[9]
  MIC: 0.5 µg/mL
Pseudomonas aeruginosa [10]
  MIC: 16 µg/mL
Pseudomonas aeruginosa [11]
  MIC: 32 µg/mL
Enterococcus faecalis
  MIC: 4 µg/mL
Staphylococcus aureus [12]
  MIC: ≤ 0.06 µg/mL
[13]
  MIC: > 128 µg/mL
